US12358963B2, “Regenerative polypeptides and uses thereof” (Juvena Therapeutics, Inc., priority 2019, dated 2025)

Assays:
Format in all cases: cell-based
mouse myoblast cells = experiment: Mouse myoblast proliferation assay (EdU); conditions: for % EdU: vehicle 3.14
Method: FIG. 5A) Bar graph quantitation of % EdU+ mouse myoblast in response to BMP7. Myoblast were cultured 48h in the presence of BMP7 at indicated dose. Fresh media and BMP7 was added every 24h, followed by 2 hour EdU pulse and fixation. Mean∓S.D. Significant p-values (Vehicle˜BMP7 0.025 ug/mL: 1.21E-07, Vehicle˜BMP7 0.075 ug/mL: 8.05E-07, Vehicle˜BMP7 0.2255 ug/mL: 3.37E-03, Vehicle˜BMP7 0.9 ug/mL: 4.99E-02). FIG. 5B) Bar graph quantitation of % EdU+ human myoblast (person) in response to BMP7. Myoblast were cultured 72h in the presence of BMP7 at indicated dose. Cells were pulsed with EdU for 4 hours before fixation. Mean∓S.D. Significant p-values (Vehicle˜BMP7 1.56 ng/mL: 0.04). (*p<0.05 by Welch's One-Tailed T-test, n=2)
FIG. 6A) Bar graph of % EdU+ mouse myoblast cells compared to vehicle. Mouse myoblast were cultured 48h in the presence of indicated factors, followed by a 2 hour EdU pulse prior to fixation. Mean∓S.D. Significant p-values (FM˜BMP7: 0.008 ug/mL: 3.17E-02, FM˜Leucine: 300 uM BMP7: 0.008 ug/mL: 2.77E-03, FM˜Leucine: 100 uM BMP7: 0.008 ug/mL: 3.72E-05, FM˜Leucine: 900 uM BMP7: 0.008 ug/mL: 2.52E-03). (*p<0.05 by One-Way ANOVA Tukey Honest Significant Difference, n=2-6)
FIG. 7A: Bar graph of % EdU+ mouse myoblast cells compared to vehicle. Mouse myoblast were cultured 48h in the presence of indicated factors. EdU pulse and fixation. Mean∓S.D. (*p<0.05 by Student's One-Tailed T-Test of increased activity, n=2-6)
FIG. 10A) The suspension CHO cells were transiently transfected with either the empty control plasmid or the FGF17-hFcm encoding plasmid. After four days, the culture supernatants were collected and added into the culture of mouse myoblast cells for 48 hours, followed by a 2 hour EdU pulse prior to fixation. […] FIG. 10B) The suspension CHO cells were transiently transfected with the FGF17-hFcm encoding plasmid. After four days, the culture supernatants were collected and FGF17-hFcm was affinity-purified by Protein A membrane column. The purified FGF17-hFcm was added into the culture of mouse myoblast cells for 48 hours, followed by a 2 hour EdU pulse and fixation.
(§1) FIG. 11A: SDS-PAGE of culture supernatants from CHO cells transiently transfected with FGF17-hFcm or its mutants encoding plasmids (FGF17d181-216-hFcm, FGF17d204-216-hFcm, FGF17R204QK207Q-hFcm). The expressed FGF17-hFcm proteins and the mutant proteins were indicated by the white arrowheads. FIG. 11B) The culture supernatants from CHO cells transiently transfected with different FGF17 encoding plasmids were added into the culture of mouse myoblast cells for 48 hours followed by 2 hour EdU pulse and fixation.
as §1, with “12A)” for “11A:”, “(FGF17d197-216-hFcm, FGF17K191AK193AS200A-hFcm).” for “(FGF17d181-216-hFcm, FGF17d204-216-hFcm, FGF17R204QK207Q-hFcm).”, “12B)” for “11B)”, “hours,” for “hours”
FIG. 14A: Bar graph of % EdU+ mouse myoblast cells compared to vehicle. Myoblast were cultured 48h in the presence of indicated factors. […] Mean∓S.D. Table quantitation of % EdU and p-values (*p<0.05 by One-Way ANOVA Tukey Honest Significant Difference, n=2-6)
FIG. 15A: Bar graph of % EdU+ mouse myoblast cells compared to vehicle. […] Mean∓S.D. Table quantitation of % EdU and p-values shown. […]

Mouse myoblasts = experiment: Mouse myoblast fusion index with sodium butyrate; conditions: 48h, vehicle 7.56
Method: Mouse myoblasts were treated with PBS or sodium butyrate at concentrations 0.1 nM, 1 nM, and 10 nM. Myoblasts were cultured for 48 hours, with fresh media added every 24 hours. Cells were pulsed for 2-5 hours with EdU (30 uM), ethanol fixed, stained with Hoescht 3342, immunostained for proliferation—as measured by the percent of cells staining positive for EdU (% EdU)—, and immunostained for differentiation—as measured by the increase in cellular area staining positive for embryonic myosin heavy chain (% eMyHC) relative to the negative controls, which received media and vehicle only. […] Significance was determined by a p-value less than 0.05 by the one-way ANOVA Tukey Honest Significant Difference test.
FIG. 2A: Bar graph of fusion index in response to sodium butyrate (NaBut) compared to vehicle. Myoblast were cultured 48h in the presence of NaBut at indicated dose. Fresh media and NaBut were added every 24h. Mean∓S.D. Table quantitation of fusion index and p-values also shown. (*p<0.05 by Student's Two-tailed T-test, n=3-5)

human myoblast cells [1] = experiment: Human myoblast differentiation, % area eMyHC (IGF2, sodium butyrate); conditions: 96h, vehicle 6.813
Method: Fresh media was added every 24 hours. […] The total area of eMyHc positive cells was analyzed, and treated cells were compared to cells treated with the vehicle alone. […] Myoblast were cultured 96h in the presence of BMP7 at indicated dose. Fresh media and BMP7 was added every 24h. Mean∓S.D. (*p<0.05 by One-Way Anova Tukey Honest Significant Difference, n=2-12) […] Fresh media was added every 24 hours. […] FIG. 3A: Bar graph of % Area eMyHC+ age human myoblast (person) in response to indicated treatment compared to Vehicle (vehicle). Myoblast were cultured 96h in the presence of factors at indicated dose. Fresh media and factors were added every 24h. Mean∓S.D. Significant p-values (Vehicle IGF2: 0.03 ug/mL: 1.42E-08, Vehicle NaBut: 1 nM IGF2: 0.03 ug/mL: 1.79E-11, Vehicle NaBut: 10 nM IGF2: 0.03 ug/mL: 1.80E-11, Vehicle NaBut: 100 nM IGF2: 0.03 ug/mL: 1.79E-11). […] Myoblast were cultured 96h in the presence of BMP7 at indicated dose. Mean±S.D. Significant p-values (IGF2 NaBut: 1 nM IGF2: 0.03 ug/mL: 1.88E-3, Vehicle NaBut: 10 nM IGF2: 0.03 ug/mL: 4.80E-3, Vehicle NaBut: 100 nM IGF2: 0.03 ug/mL: 1.87E-3) (*p<0.05 by One-Way ANOVA Tukey Honest Significant Difference, n=2-12)

DM1 human myoblast = experiment: Gene expression fold change in DM1 human myoblast; conditions: 48h; BMP7 50 ng/mL, Butyrate 100 nM, IGF2 200 ng/mL; FM 1.000
human myoblast cells [2] = experiment: Human myoblast differentiation, percentage area of MyHC; conditions: Example 3, purified, 96 hours with daily media change; vehicle control 1.384
Method: (§2) FIG. 1A: The suspension CHO cells were transiently transfected with the IGF2-hFcm encoding plasmid. IGF2-hFcm was affinity-purified by Protein A membrane column. The purified IGF2-hFcm was added into the culture of human myoblast cells for 96 hours. Myosin heavy chain (MyHC) was immunostained and imaged by a fluorescence microscope.
as §2, with “The” for “FIG. 1A: The”, “IGF2-LhFc4” for “IGF2-hFcm”, “hours with daily media change.” for “hours.”
The suspension CHO cells were transiently transfected with the HSA-L-IGF2R61A encoding plasmid. HSA-L-IGF2R61A was affinity-purified by Protein A membrane column. […] Myosin heavy chain (MyHC) was immunostained and imaged by a fluorescence microscope.
Suspension CHO cells were transiently transfected with the IGF2-hFcm encoding plasmid. […] After quantification of the stained MyHC, the percentage area of MyHC was calculated as the percent of pixels within the field that are illuminated above background in the stained channel. […] Significance was determined by a p-value less than 0.05 by the one-way ANOVA Tukey Honest Significant Difference test.

In the case of `CC(C)C[C@H](N)C(=O)O` [Leucine], the “Effect on BMP7 mitogenic activity (% EdU+)” value (mouse myoblast cells; Leucine 100, 300, 900 uM with BMP7 0.008 ug/mL, 48h) was “Enhances BMP7 Mitogenic Activity”.

`CCCC(=O)[O-].[Na+]` [NaBut, sodium butyrate] was tested, and the “Fusion Index (nuclei/myotube)” value (Mouse myoblasts; 0.1 nM) was 8.44 nuclei/myotube, the “Fusion Index (nuclei/myotube)” value (Mouse myoblasts; 1 nM) was 31.60 nuclei/myotube and the “Fusion Index (nuclei/myotube)” value (Mouse myoblasts; 10 nM) was 14.00 nuclei/myotube. The “% eMyHC” value (human myoblast cells [1]; NaBut 1 nM) was 2.321%, the “% eMyHC” value (human myoblast cells [1]; NaBut 10 nM) was 6.199% and the “% eMyHC” value (human myoblast cells [1]; NaBut 100 nM) was 8.341%. The “MYF5 expression fold change compared to FM” value (DM1 human myoblast) was 1.128, the “MYOD1 expression fold change compared to FM” value (DM1 human myoblast) was 1.095 and the “MYOG expression fold change compared to FM” value (DM1 human myoblast) was 1.020.

For Heparin [reference compound], the “% EdU” value (mouse myoblast cells; Heparin 0.5 ug/mL, 48h) was 1.77%, the “% EdU” value (mouse myoblast cells; Heparin 1 ug/mL, 48h) was 3.01% and the “% EdU” value (mouse myoblast cells; Heparin 2 ug/mL, 48h) was 2.85%.

In the case of Hyaluronic Acid [Hyaluronic Acid (HA)], the “Effect on BMP7 mitogenic activity (% EdU+)” value (mouse myoblast cells; hyaluronic acid with BMP7, 48h) was “Enhances BMP7 Mitogenic Activity”.

With “IGF2-hFc4: IGF2 fused to hFc4, human IgG4 Fc with S228P point mutation” the “% MyHC” value (human myoblast cells [2]) was 6.901%.
